{"source": "ChEMBL document CHEMBL4402592", "about": "“Targeting Endoplasmic Reticulum α-Glucosidase I with a Single-Dose Iminosugar Treatment Protects against Lethal Influenza and Dengue Virus Infections” (J Med Chem, 2020)", "key": {"[1]": {"test_system": "dengue virus type 2", "test": "Antiviral activity against Dengue virus 2 S221 infected in DENV antibody dependent enhancement AG129 mouse model assessed as reduction in TNF-alpha level at 750 mg/kg, po administered via gavage as two doses at 36 hrs and 52 hrs post infection measured at 72 hrs post-infection by electrochemiluminescence based method", "type": "functional, organism-based"}, "[2]": {"test_system": "dengue virus type 2", "test": "Antiviral activity against Dengue virus 2 S221 infected in DENV antibody dependent enhancement AG129 mouse model assessed as animal survival at 750 mg/kg, po administered via gavage as two doses at 36 and 52 hrs post infection (reference value: 4%)", "type": "functional"}, "[3]": {"test_system": "Influenza A virus", "test": "Antiviral activity against Influenza A virus (A/Texas/36/1991(H1N1)) infected in BALB/c mouse assessed as increase in animal survival rate at 100 mg/kg, po administered via gavage starting at 8 hrs post-infection and continuing TID for 5 days", "type": "functional, organism-based"}, "[4]": {"test_system": "dengue virus type 2", "test": "Antiviral activity against Dengue virus 2 S221 infected in DENV antibody dependent enhancement AG129 mouse model assessed as animal survival at 750 mg/kg, po administered via gavage as two doses at 16 and 32 hrs post infection (reference value: 4%)", "type": "functional"}, "[5]": {"test_system": "dengue virus type 2", "test": "Antiviral activity against Dengue virus 2 S221 infected in DENV antibody dependent enhancement AG129 mouse model assessed as reduction in viremia at 750 mg/kg, po administered via gavage as single dose at 36 hrs post infection measured within 8 hrs by qRT-PCR analysis", "type": "functional"}, "[6]": {"test_system": "Influenza A virus", "test": "Antiviral activity against Influenza A virus (A/Texas/36/1991(H1N1)) infected in BALB/c mouse assessed as median death time at 750 mg/kg, po administered via gavage as three dosed at 8, 32 and 56 hrs post infection (reference value: 8 days)", "type": "functional"}, "[7]": {"test_system": "Influenza A virus", "test": "Antiviral activity against Influenza A virus (A/Texas/36/1991(H1N1)) infected in BALB/c mouse assessed as animal survival at 500 mg/kg, po administered via gavage as single dose at 8 hrs post infection (reference value: 0%)", "type": "functional"}, "[8]": {"test_system": "Cynomolgus monkey", "test": "In vivo inhibition of ERGlu1 in cynomolgus monkey assessed as increase in tri-glucosylated FOS at level in serum 128 to 258 mg/kg, po administered via gavage as single dose measured after 8 to 72 hrs by NP-HPLC analysis", "type": "functional, organism-based", "settings": "Macaca fascicularis"}, "[9]": {"test_system": "dengue virus type 2", "test": "Antiviral activity against Dengue virus 2 S221 infected in DENV antibody dependent enhancement AG129 mouse model assessed as animal survival at 375 mg/kg, po administered via gavage as two doses at 16 and 32 hrs post infection (reference value: 4%)", "type": "functional"}, "[10]": {"test": "Toxicity in po dosed cynomolgus monkey assessed as maximum tolerated dose administered via gavage as single dose", "type": "organism-based, Macaca fascicularis", "settings": "in vivo"}, "[11]": {"test_system": "dengue virus type 2", "test": "Antiviral activity against Dengue virus 2 S221 infected in DENV antibody dependent enhancement AG129 mouse model assessed as animal survival at 250 mg/kg, po administered via gavage as two doses at 36 and 52 hrs post infection (reference value: 4%)", "type": "functional"}, "[12]": {"test_system": "Influenza A virus", "test": "Antiviral activity against Influenza A virus (A/Texas/36/1991(H1N1)) infected in BALB/c mouse assessed as median death time at 750 mg/kg, po administered via gavage as single dose at 16 hrs post infection (reference value: 8.5 days)", "type": "functional"}, "[13]": {"test_system": "Influenza A virus", "test": "Antiviral activity against Influenza A virus (A/Texas/36/1991(H1N1)) infected in BALB/c mouse assessed as median death time at 500 mg/kg, po administered via gavage as single dose at 24 hrs post infection (reference value: 8.5 days)", "type": "functional"}, "[14]": {"test_system": "dengue virus type 2", "test": "Antiviral activity against Dengue virus 2 S221 infected in DENV antibody dependent enhancement AG129 mouse model assessed as reduction in IFN-gamma level at 750 mg/kg, po administered via gavage as two doses at 36 hrs and 52 hrs post infection measured at 60 hrs post-infection by electrochemiluminescence based method", "type": "functional, organism-based"}, "[15]": {"test_system": "Influenza A virus", "test": "Antiviral activity against Influenza A virus (A/Texas/36/1991(H1N1)) infected in BALB/c mouse assessed as median death time at 500 mg/kg, po administered via gavage as single dose at 16 hrs post infection (reference value: 8.5 days)", "type": "functional"}, "[16]": {"test_system": "dengue virus type 2", "test": "Antiviral activity against Dengue virus 2 S221 infected in DENV antibody dependent enhancement AG129 mouse model assessed as reduction in IL-12/IL-23p40 level at 750 mg/kg, po administered via gavage as single dose at 36 hrs post infection measured at 60 hrs post-infection by electrochemiluminescence based method", "type": "functional, organism-based"}, "[17]": {"test_system": "Mus musculus", "test": "In vivo inhibition of ERGlu1 in BALB/c mouse assessed as increase in mono-glucosylated FOS level in lung at 100 to 1000 mg/kg, po administered via gavage at 8 hrs post-infection and measured at 8 hrs post-dose by NP-HPLC analysis", "type": "functional, organism-based"}, "[18]": {"test_system": "Mus musculus", "test": "In vivo inhibition of ERGlu1 in BALB/c mouse assessed as increase in tri-glucosylated FOS level in serum at 750 mg/kg, po administered via gavage as single dose and measured after 16 hrs by NP-HPLC analysis", "type": "functional, organism-based"}, "[19]": {"test_system": "Mus musculus", "test": "In vivo inhibition of ERGlu1 in BALB/c mouse assessed as increase in tri-glucosylated FOS level in lung at >250 mg/kg, po administered via gavage as single dose at 8 hrs post-infection and measured at 8 hrs post dose by NP-HPLC analysis", "type": "functional, organism-based"}, "[20]": {"test_system": "Cynomolgus monkey", "test": "In vivo inhibition of ERGlu2 in cynomolgus monkey serum assessed as increase in mono-glucosylated FOS level in serum at 26 to 258 mg/kg, po administered via gavage as single dose and measured up to 72 hrs post-dose by NP-HPLC analysis", "type": "functional, organism-based", "settings": "Macaca fascicularis"}, "[21]": {"test_system": "dengue virus type 2", "test": "Antiviral activity against Dengue virus 2 S221 infected in DENV antibody dependent enhancement AG129 mouse model assessed as animal survival at 500 mg/kg, po administered via gavage as two doses at 36 and 52 hrs post infection (reference value: 4%)", "type": "functional"}, "[22]": {"test_system": "dengue virus type 2", "test": "Antiviral activity against Dengue virus 2 S221 infected in DENV antibody dependent enhancement AG129 mouse model assessed as reduction in IFN-gamma level at 750 mg/kg, po administered via gavage as single dose at 36 hrs post infection measured at 60 hrs post-infection by electrochemiluminescence based method", "type": "functional, organism-based"}, "[23]": {"test_system": "dengue virus type 2", "test": "Antiviral activity against Dengue virus 2 S221 infected in DENV antibody dependent enhancement AG129 mouse model assessed as reduction in IL-12/IL-23p40 level at 750 mg/kg, po administered via gavage as single dose at 36 hrs post infection measured at 72 hrs post-infection by electrochemiluminescence based method", "type": "functional, organism-based"}, "[24]": {"test_system": "Influenza A virus", "test": "Antiviral activity against Influenza A virus (A/Texas/36/1991(H1N1)) infected in BALB/c mouse assessed as animal survival at 500 mg/kg, po administered via gavage as single dose at 24 hrs post infection (reference value: 0%)", "type": "functional"}, "[25]": {"test_system": "dengue virus type 2", "test": "Antiviral activity against Dengue virus 2 S221 infected in DENV antibody dependent enhancement AG129 mouse model assessed as reduction in IL10 level at 750 mg/kg, po administered via gavage as single dose at 36 hrs post infection measured at 60 hrs post-infection by electrochemiluminescence based method", "type": "functional, organism-based"}}, "note": "Calls of active or inactive are those of the source. No cut-off for these calls is given here."}
{"compound": "COCCCCCCCCCN1C[C@H](O)[C@@H](O)[C@H](O)[C@H]1CO.Cl", "values": [{"measurement": "Activity", "setting": "[1]", "value": "Active"}, {"measurement": "survival at 750 mg/kg", "setting": "[2]", "value": 100, "unit": "%"}, {"measurement": "Activity", "setting": "[3]", "value": "Active"}, {"measurement": "survival at 750 mg/kg", "setting": "[4]", "value": 100, "unit": "%"}, {"measurement": "log(activity)", "setting": "[5]", "value": ">1"}, {"measurement": "Time", "setting": "[6]", "value": ">14", "unit": "days"}, {"measurement": "survival at 500 mg/kg", "setting": "[7]", "value": 50, "unit": "%"}, {"measurement": "inhibition", "setting": "[8]", "value": "Active"}, {"measurement": "survival at 375 mg/kg", "setting": "[9]", "value": 100, "unit": "%"}, {"measurement": "MTD", "setting": "[10]", "value": 258, "unit": "mg/kg"}, {"measurement": "survival at 250 mg/kg", "setting": "[11]", "value": 100, "unit": "%"}, {"measurement": "Time", "setting": "[12]", "value": ">14", "unit": "days"}, {"measurement": "Time", "setting": "[13]", "value": 11, "unit": "days"}, {"measurement": "Activity", "setting": "[14]", "value": "Active"}, {"measurement": "Time", "setting": "[15]", "value": 12, "unit": "days"}, {"measurement": "Activity", "setting": "[16]", "value": "Active"}, {"measurement": "inhibition", "setting": "[17]", "value": "Active"}, {"measurement": "inhibition", "setting": "[18]", "value": "Active"}, {"measurement": "inhibition", "setting": "[19]", "value": "Active"}, {"measurement": "inhibition", "setting": "[20]", "value": "Active"}, {"measurement": "survival at 500 mg/kg", "setting": "[21]", "value": 86, "unit": "%"}, {"measurement": "Activity", "setting": "[22]", "value": "Active"}, {"measurement": "Activity", "setting": "[23]", "value": "Active"}, {"measurement": "survival at 500 mg/kg", "setting": "[24]", "value": 30, "unit": "%"}, {"measurement": "Activity", "setting": "[25]", "value": "Active"}]}
